In US10981911B2, “Imidazopyrrolopyridine as inhibitors of the JAK family of kinases” (Janssen Pharmaceutica NV, priority 2016, dated 2021) one finds IC50 data, which are given here for 15 compounds.

Common to all, as to type: biochemical
One test has as its target JAK1-JH1JH2 (Homo sapiens (Human), UniProt P23458). Kind of test: Enzymatic inhibition assay (RapidFire HTMS), JAK1. The note with it: 12.5 μM ATP, 200 μM substrate; read-out: JAK1-JH2JH1 IC50. Summed up: (§1)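 Quenched with 0.5% TFA plus internal-standard peptide; phosphorylated product quantified by RapidFire C4 SPE–ESI-MS, 11-point 1:3 or 1:4 dilutions in duplicate.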
For the next test, the target named is JAK2-JH1JH2 (Homo sapiens (Human), UniProt O60674). Kind of test: Enzymatic inhibition assay (RapidFire HTMS), JAK2. The note with it: 30 μM ATP, 40 μM substrate. Summed up: as §1
A further test has as its target JAK3-JH1JH2 (Homo sapiens (Human), UniProt P52333). In words: Enzymatic inhibition assay (RapidFire HTMS), JAK3. The following applies: 150 μM ATP, 40 μM substrate. In short, it runs like this: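 JAK3 JH1JH2 reaction incubated 45 min at 25 °C, then quenched with 0.5% TFA containing 0.15 μM internal standard peptide. Phosphopeptide product measured by RapidFire C4 SPE–ESI MS (positive mode); inhibition from product decrease versus uninhibited enzyme, 11-point 1:3 or 1:4 dilutions in duplicate.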

The target of the next test is Tyk2-JH1JH2 (Homo sapiens (Human), UniProt P29597, C1142A/C936A). In words: Enzymatic inhibition assay (RapidFire HTMS), Tyk2. The note with it: 50 μM ATP, 200 μM substrate. In short, it runs like this:
as §1

Sequence of JAK1-JH1JH2 (P23458 574-1154): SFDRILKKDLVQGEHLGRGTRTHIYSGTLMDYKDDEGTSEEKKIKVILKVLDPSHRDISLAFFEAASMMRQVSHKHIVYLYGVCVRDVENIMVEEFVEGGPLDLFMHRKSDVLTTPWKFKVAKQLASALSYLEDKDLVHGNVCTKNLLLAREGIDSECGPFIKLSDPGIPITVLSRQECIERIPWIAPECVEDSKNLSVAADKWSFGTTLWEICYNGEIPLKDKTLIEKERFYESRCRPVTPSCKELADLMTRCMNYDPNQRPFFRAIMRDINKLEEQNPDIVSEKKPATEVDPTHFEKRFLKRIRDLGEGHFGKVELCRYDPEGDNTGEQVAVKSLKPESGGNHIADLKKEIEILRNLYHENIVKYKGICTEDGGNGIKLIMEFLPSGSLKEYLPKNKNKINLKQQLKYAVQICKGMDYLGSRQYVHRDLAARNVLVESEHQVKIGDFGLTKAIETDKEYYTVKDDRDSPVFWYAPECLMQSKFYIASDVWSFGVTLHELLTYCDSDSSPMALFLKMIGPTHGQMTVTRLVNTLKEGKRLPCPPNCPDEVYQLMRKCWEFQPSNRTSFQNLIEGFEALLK
Sequence of JAK3-JH1JH2 (P52333 512-1124): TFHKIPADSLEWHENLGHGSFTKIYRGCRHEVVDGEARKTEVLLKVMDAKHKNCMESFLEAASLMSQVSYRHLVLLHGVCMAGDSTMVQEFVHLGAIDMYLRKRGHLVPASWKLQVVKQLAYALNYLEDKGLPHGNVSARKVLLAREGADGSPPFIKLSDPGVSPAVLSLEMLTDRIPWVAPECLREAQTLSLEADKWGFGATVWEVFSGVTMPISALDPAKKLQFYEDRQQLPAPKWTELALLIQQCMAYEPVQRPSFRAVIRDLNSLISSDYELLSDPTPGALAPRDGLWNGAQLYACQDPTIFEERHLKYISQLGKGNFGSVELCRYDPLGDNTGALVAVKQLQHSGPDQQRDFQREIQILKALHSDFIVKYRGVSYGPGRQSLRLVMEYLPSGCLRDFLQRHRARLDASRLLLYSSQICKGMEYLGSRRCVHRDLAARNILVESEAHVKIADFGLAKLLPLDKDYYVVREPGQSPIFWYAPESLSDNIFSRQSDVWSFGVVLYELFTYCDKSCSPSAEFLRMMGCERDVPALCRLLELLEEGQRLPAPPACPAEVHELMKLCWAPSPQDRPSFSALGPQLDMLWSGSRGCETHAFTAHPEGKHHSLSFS
Sequence of Tyk2-JH1JH2 (P29597 580-1182 C936A/C1142A): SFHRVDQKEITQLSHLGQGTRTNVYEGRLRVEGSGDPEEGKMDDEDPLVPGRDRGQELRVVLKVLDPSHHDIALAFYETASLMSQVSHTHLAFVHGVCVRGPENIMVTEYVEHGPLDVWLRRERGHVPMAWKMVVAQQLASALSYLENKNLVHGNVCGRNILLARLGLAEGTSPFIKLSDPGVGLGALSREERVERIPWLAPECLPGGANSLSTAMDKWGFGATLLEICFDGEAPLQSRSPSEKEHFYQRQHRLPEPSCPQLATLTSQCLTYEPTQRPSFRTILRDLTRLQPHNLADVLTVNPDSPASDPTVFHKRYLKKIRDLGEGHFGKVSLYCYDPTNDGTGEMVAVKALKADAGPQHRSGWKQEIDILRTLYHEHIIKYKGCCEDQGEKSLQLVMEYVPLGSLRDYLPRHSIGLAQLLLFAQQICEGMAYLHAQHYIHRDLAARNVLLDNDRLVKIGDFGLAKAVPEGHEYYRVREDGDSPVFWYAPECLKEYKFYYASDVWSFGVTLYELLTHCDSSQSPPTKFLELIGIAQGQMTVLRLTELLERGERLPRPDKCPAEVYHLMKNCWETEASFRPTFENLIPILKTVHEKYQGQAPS
Sequence of JAK2-JH1JH2 (O60674 532-1132): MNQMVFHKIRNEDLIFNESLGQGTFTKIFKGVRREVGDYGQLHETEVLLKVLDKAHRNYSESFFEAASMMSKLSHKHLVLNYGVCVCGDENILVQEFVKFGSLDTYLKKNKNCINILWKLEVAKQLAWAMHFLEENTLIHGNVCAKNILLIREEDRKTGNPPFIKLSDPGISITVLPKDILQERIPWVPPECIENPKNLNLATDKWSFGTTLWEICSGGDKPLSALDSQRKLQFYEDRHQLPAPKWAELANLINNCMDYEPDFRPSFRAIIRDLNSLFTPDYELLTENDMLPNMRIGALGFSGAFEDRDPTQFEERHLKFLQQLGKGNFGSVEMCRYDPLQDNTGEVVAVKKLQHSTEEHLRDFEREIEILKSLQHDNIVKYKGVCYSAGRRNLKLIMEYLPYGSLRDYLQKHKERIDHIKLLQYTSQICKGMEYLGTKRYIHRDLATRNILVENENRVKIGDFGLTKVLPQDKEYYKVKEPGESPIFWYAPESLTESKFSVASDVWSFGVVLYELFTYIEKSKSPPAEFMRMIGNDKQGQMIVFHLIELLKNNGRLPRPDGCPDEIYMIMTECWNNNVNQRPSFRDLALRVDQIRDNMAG

On to `N#CC[C@H]1CC[C@H](n2c(CC(=O)N3CCC[C@H]3CO)nc3cnc4[nH]ccc4c32)CC1` [Ex. 195, 2-((1S,4r)-4-(2-(2-((S)-2-(hydroxymethyl)pyrrolidin-1-yl)-2-oxoethyl)imidazo[4,5-d]pyrrolo[2,3-b]pyridin-1(6H)-yl)cyclohexyl)acetonitrile], for which the IC50 at JAK1-JH1JH2 amounted to 3.3 nM; on JAK2-JH1JH2, 33.7 nM; on JAK3-JH1JH2, 294 nM; against Tyk2-JH1JH2 it was 11 nM.
On to `N#CC[C@H]1CC[C@H](n2c(COC(=O)NC34CC5CC(CC(C5)C3)C4)nc3cnc4[nH]ccc4c32)CC1` [Ex. 196, (1-((1r,4r)-4-(Cyanomethyl)cyclohexyl)-1,6-dihydroimidazo[4,5-d]pyrrolo[2,3-b]pyridin-2-yl)methyl (3S,5S,7S)-adamantan-1-ylcarbamate], for which the IC50 at JAK1-JH1JH2 was found to be 3.4 nM; against JAK2-JH1JH2, 41.4 nM; against JAK3-JH1JH2, 660 nM; against Tyk2-JH1JH2 it was 41.8 nM.
`COC1CCN(C(=O)Cc2nc3cnc4[nH]ccc4c3n2[C@H]2CC[C@H](CC#N)CC2)CC1` [Ex. 197, 2-((1r,4r)-4-(2-(2-(4-Methoxypiperidin-1-yl)-2-oxoethyl)imidazo[4,5-d]pyrrolo[2,3-b]pyridin-1(6H)-yl)cyclohexyl)acetonitrile]: the IC50 at JAK1-JH1JH2 is below 4 nM; against JAK2-JH1JH2, 15.5 nM; against JAK3-JH1JH2 it was 132 nM; against Tyk2-JH1JH2, 6.2 nM.
For `CNC(=O)Cc1nc2cnc3[nH]ccc3c2n1[C@H]1CC[C@H](CC#N)CC1` [Ex. 198, 2-(1-((1r,4r)-4-(Cyanomethyl)cyclohexyl)-1,6-dihydroimidazo[4,5-d]pyrrolo[2,3-b]pyridin-2-yl)-N-methylacetamide], in that order: below 4 nM, 2.1 nM, 24.4 nM and 1.2 nM.
As to `N#CC[C@H]1CC[C@H](n2c(CC(=O)NCC34CC5CC(CC(C5)C3)C4)nc3cnc4[nH]ccc4c32)CC1` [Ex. 199, N-((3R,5R,7R)-Adamantan-1-ylmethyl)-2-(1-((1r,4r)-4-(cyanomethyl)cyclohexyl)-1,6-dihydroimidazo[4,5-d]pyrrolo[2,3-b]pyridin-2-yl)acetamide], the IC50 on JAK1-JH1JH2 is below 4 nM; against JAK2-JH1JH2 it was 3.6 nM; against JAK3-JH1JH2 it was 109 nM; against Tyk2-JH1JH2, 7.9 nM.
Take `N#CC[C@H]1CC[C@H](n2c(CC(=O)Nc3ccc(C#N)cc3)nc3cnc4[nH]ccc4c32)CC1` [Ex. 200, 2-(1-((1r,4r)-4-(Cyanomethyl)cyclohexyl)-1,6-dihydroimidazo[4,5-d]pyrrolo[2,3-b]pyridin-2-yl)-N-(4-cyanophenyl)acetamide]: the IC50 is below 4 nM at JAK1-JH1JH2, below 3.5 nM at JAK2-JH1JH2, 13.7 nM on JAK3-JH1JH2 and 12.5 nM on Tyk2-JH1JH2.
The matching figures for `N#CC[C@H]1CC[C@H](n2c(CC(N)=O)nc3cnc4[nH]ccc4c32)CC1` [Ex. 201, 2-(1-((1r,4r)-4-(Cyanomethyl)cyclohexyl)-1,6-dihydroimidazo[4,5-d]pyrrolo[2,3-b]pyridin-2-yl)acetamide]: below 4 nM, 1.9 nM, 47.5 nM and 1.1 nM.
In the case of `CC(C)(C)OCc1nc2cnc3[nH]ccc3c2n1[C@H]1CC[C@H](CC#N)CC1` [Ex. 202, 2-((1r,4r)-4-(2-(tert-Butoxymethyl)imidazo[4,5-d]pyrrolo[2,3-b]pyridin-1(6H)-yl)cyclohexyl)acetonitrile], the IC50 on JAK1-JH1JH2 was found to be 5 nM; at JAK2-JH1JH2, 50.9 nM; against JAK3-JH1JH2, 1040 nM; against Tyk2-JH1JH2, 50.9 nM.
Take `N#CC[C@H]1CC[C@H](n2c(Cn3c(-c4ccccc4)noc3=O)nc3cnc4[nH]ccc4c32)CC1` [Ex. 203, 2-((1r,4r)-4-(2-((5-Oxo-3-phenyl-1,2,4-oxadiazol-4(5H)-yl)methyl)imidazo[4,5-d]pyrrolo[2,3-b]pyridin-1(6H)-yl)cyclohexyl)acetonitrile]: the IC50 at JAK1-JH1JH2 came to 8.5 nM; against JAK2-JH1JH2, 152 nM; against JAK3-JH1JH2, 4680 nM; against Tyk2-JH1JH2 it was 41.5 nM.
The matching figures for `N#CC[C@H]1CC[C@H](n2c(CN/C(=N/O)C3CCCCC3)nc3cnc4[nH]ccc4c32)CC1` [Ex. 204, N-((1-((1r,4r)-4-(Cyanomethyl)cyclohexyl)-1,6-dihydroimidazo[4,5-d]pyrrolo[2,3-b]pyridin-2-yl)methyl)-N′-hydroxycyclohexanecarboximidamide]: 6.7 nM, 13.1 nM, 427 nM and 10.7 nM.
For `N#CCC12CCC(n3c(CC(=O)N4CCCCC4)nc4cnc5[nH]ccc5c43)(CC1)CC2` [Ex. 205, 2-(4-(2-(2-Oxo-2-(piperidin-1-yl)ethyl)imidazo[4,5-d]pyrrolo[2,3-b]pyridin-1(6H)-yl)bicyclo[2.2.2]octan-1-yl)acetonitrile], the IC50 on JAK1-JH1JH2 worked out at 5.3 nM; against JAK2-JH1JH2, 487 nM; at JAK3-JH1JH2, 439 nM; on Tyk2-JH1JH2, 606 nM.
As to `N#CCC12CCC(n3c(CC(N)=O)nc4cnc5[nH]ccc5c43)(CC1)CC2` [Ex. 206, 2-(1-(4-(Cyanomethyl)bicyclo[2.2.2]octan-1-yl)-1,6-dihydroimidazo[4,5-d]pyrrolo[2,3-b]pyridin-2-yl)acetamide], the IC50 was found to be 5.6 nM at JAK1-JH1JH2, 210 nM against JAK2-JH1JH2, 881 nM on JAK3-JH1JH2 and 158 nM at Tyk2-JH1JH2.
As to `N#CCC12CCC(n3c(CC(=O)Nc4ccccc4)nc4cnc5[nH]ccc5c43)(CC1)CC2` [Ex. 207, 2-(1-(4-(Cyanomethyl)bicyclo[2.2.2]octan-1-yl)-1,6-dihydroimidazo[4,5-d]pyrrolo[2,3-b]pyridin-2-yl)-N-phenylacetamide], the IC50 worked out at 6.8 nM on JAK1-JH1JH2, 198 nM on JAK2-JH1JH2, 375 nM against JAK3-JH1JH2 and 524 nM at Tyk2-JH1JH2.
`N#CCC12CCC(n3c(CC(=O)NCC4CCCCC4)nc4cnc5[nH]ccc5c43)(CC1)CC2` [Ex. 208, 2-(1-(4-(Cyanomethyl)bicyclo[2.2.2]octan-1-yl)-1,6-dihydroimidazo[4,5-d]pyrrolo[2,3-b]pyridin-2-yl)-N-(cyclohexylmethyl)acetamide]: the IC50 on JAK1-JH1JH2 is 7.6 nM; at JAK2-JH1JH2, 442 nM; on JAK3-JH1JH2 it was 536 nM; against Tyk2-JH1JH2, 714 nM.
Turning to `CNC(=O)Cc1nc2cnc3[nH]ccc3c2n1C12CCC(CC#N)(CC1)CC2` [Ex. 209, 2-(1-(4-(Cyanomethyl)bicyclo[2.2.2]octan-1-yl)-1,6-dihydroimidazo[4,5-d]pyrrolo[2,3-b]pyridin-2-yl)-N-methylacetamide], the IC50 at JAK1-JH1JH2 turned out to be 18.9 nM; against JAK2-JH1JH2, 520 nM; at JAK3-JH1JH2, 604 nM; on Tyk2-JH1JH2, 651 nM.

The IC50 is the concentration that inhibits the measured activity by half.
